Data on one compound can be found in patent EP1073435B1, “SUBSTITUTED TRICYCLIC PYRAZOLE DERIVATIVES WITH PROTEIN KINASE ACTIVITY” (Abbott GmbH & Co. KG, priority 1998, dated 1999).

Common to all, as to format: biochemical
In one assay the target is T1, KDR tyrosine kinase (Homo sapiens, UniProt P35968).
T1 construct: poly-His6 (N); made in house; host or cells: SF-9 insect cells (baculovirus, pVL1393)
Kind of assay: KDR in vitro ELISA. Conditions: ELISA assay, ATP 5µM. From the text:
The coding sequence for the KDR intra-cellular domain (aa789-1354) was generated through PCR using cDNAs isolated from HUVEC cells. A poly-His6 sequence was introduced at the N-terminus of this protein as well. This fragment was cloned into transfection vector pVL1393 at the Xba 1 and Not 1 site. Recombinant baculovirus (BV) was generated through co-transfection using the BaculoGold Transfection reagent (PharMingen). Recombinant BV was plaque purified and verified through Western analysis. For protein production, SF-9 cells were grown in SF-900-II medium at 2 x 10^6/ml, and were infected at 0.5 plaque forming units per cell (MOI). Cells were harvested at 48 hours post infection.
SF-9 cells expressing (His)6KDR(aa789-1354) were lysed by adding 50 ml of Triton X-100 lysis buffer (20 mM Tris, pH 8.0, 137 mM NaCl, 10% glycerol, 1% Triton X-100, 1mM PMSF, 10µg/ml aprotinin, 1 µg/ml leupeptin) to the cell pellet from 1L of cell culture. The lysate was centrifuged at 19,000 rpm in a Sorval SS-34 rotor for 30 min at 4°C. The cell lysate was applied to a 5 ml NiCl2 chelating sepharose column, equilibrated with 50 mM HEPES, pH7.5, 0.3 M NaCl. KDR was eluted using the same buffer containing 0.25 M imidazole. Column fractions were analyzed using SDS-PAGE and an ELISA assay (below) which measures kinase activity. […]

The next assay addresses Lck (Homo sapiens, UniProt P06239). In words: ELISA tyrosine kinase assay, Lck. As for the experimental part:
Lck or truncated forms of Lck may be commercially obtained ( e.g. from Upstate Biotechnology Inc. (Saranac Lake, N.Y) and Santa Cruz Biotechnology Inc. (Santa Cruz, Ca.)) or purified from known natural or recombinant sources using conventional methods.
• 1. Plate Preparation: Dilute PGT stock (50mg/ml, frozen) in PBS to a 250µg/ml. Add 125µl per well of Coming modified flat bottom high affinity ELISA plates (Corning #25805-96). Add 125µl PBS to blank wells. Cover with sealing tape and incubate overnight 37°C. Wash 1x with 250µl washing buffer and dry for about 2hrs in 37°C dry incubator. Store coated plates in sealed bag at 4°C until used. • 2. Tyrosine Kinase Reaction: • Prepare inhibitor solutions at a 4x concentration in 20% DMSO in water. • Prepare reaction buffer • Prepare enzyme solution so that desired units are in 50µl, e.g. for KDR make to 1 ng/µl for a total of 50ng per well in the reactions. Store on ice. • Make 4x ATP solution to 20µM from 100mM stock in water. Store on ice • Add 50µl of the enzyme solution per well • Add 25µl 4x inhibitor • Add 25µl 4x ATP for inhibitor assay • Incubate for 10 minutes at room temperature • Stop reaction by adding 50µl 0.05N HCl per well • Wash plate **Final Concentrations for Reaction: • ATP: 5µM • 5% DMSO • 3. […] Shake on plate reader. • Read OD immediately at 450nm […]
A general note: In an ELISA, binding on a coated surface is turned into a signal by an enzyme label.

In the next assay the target is T2, human Tie-2 (Homo sapiens, UniProt Q02763).
T2 construct: human Tie-2 intra-cellular domain (aa775-1124) was generated through PCR; made in house; host or cells: SF-9 insect cells (baculovirus)
T2 sequence (Q02763 775-1124): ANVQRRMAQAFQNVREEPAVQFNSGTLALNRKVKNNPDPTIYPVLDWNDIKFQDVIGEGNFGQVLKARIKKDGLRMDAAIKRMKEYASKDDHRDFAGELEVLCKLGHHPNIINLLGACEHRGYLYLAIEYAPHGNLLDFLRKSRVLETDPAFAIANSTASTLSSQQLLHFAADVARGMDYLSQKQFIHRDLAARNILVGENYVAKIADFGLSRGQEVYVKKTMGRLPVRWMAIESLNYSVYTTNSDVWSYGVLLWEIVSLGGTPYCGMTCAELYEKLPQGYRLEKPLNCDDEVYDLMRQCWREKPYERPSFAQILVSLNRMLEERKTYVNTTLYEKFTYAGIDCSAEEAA
Kind of assay: ELISA tyrosine kinase assay, TIE2. From the text:
The coding sequence for the human Tie-2 intra-cellular domain (aa775-1124) was generated through PCR using cDNAs isolated from human placenta as a template. A poly-His6 sequence was introduced at the N-terminus and this construct was cloned into transfection vector […] at the Xba 1 and Not 1 site. Recombinant BV was generated through co-transfection using the BaculoGold Transfection reagent (PharMingen). Recombinant BV was plaque purified and verified through Western analysis. For protein production, SF-9 insect cells were grown in SF-900-II medium at 2 x 10^6/ml, and were infected at MOI of 0.5. Purification of the His-tagged kinase used in screening was analogous to that described for KDR.
The disclosed protocol can be adapted for determining activity with respect to a specific RTK. For example, preferred protocols for conducting the ELISA experiments for KDR is provided below. Adaptation of these protocols for determining a compounds activity for other members of the RTK family, as well as non-receptor tyrosine kinases, are well within the abilities of those in the art.
• 1. Plate Preparation: Dilute PGT stock (50mg/ml, frozen) in PBS to a 250µg/ml. Add 125µl per well of Coming modified flat bottom high affinity ELISA plates (Corning #25805-96). Add 125µl PBS to blank wells. Cover with sealing tape and incubate overnight 37°C. […] Shake on plate reader. • Read OD immediately at 450nm

A further assay addresses T3, zapfl (Homo sapiens, UniProt P43403).
T3 construct: the region encoding the entirety of ZAP70 (amino acids 1-619); made in house; host or cells: SF-9 insect cells (baculovirus, pVL1393)
T3 sequence (P43403 1-619): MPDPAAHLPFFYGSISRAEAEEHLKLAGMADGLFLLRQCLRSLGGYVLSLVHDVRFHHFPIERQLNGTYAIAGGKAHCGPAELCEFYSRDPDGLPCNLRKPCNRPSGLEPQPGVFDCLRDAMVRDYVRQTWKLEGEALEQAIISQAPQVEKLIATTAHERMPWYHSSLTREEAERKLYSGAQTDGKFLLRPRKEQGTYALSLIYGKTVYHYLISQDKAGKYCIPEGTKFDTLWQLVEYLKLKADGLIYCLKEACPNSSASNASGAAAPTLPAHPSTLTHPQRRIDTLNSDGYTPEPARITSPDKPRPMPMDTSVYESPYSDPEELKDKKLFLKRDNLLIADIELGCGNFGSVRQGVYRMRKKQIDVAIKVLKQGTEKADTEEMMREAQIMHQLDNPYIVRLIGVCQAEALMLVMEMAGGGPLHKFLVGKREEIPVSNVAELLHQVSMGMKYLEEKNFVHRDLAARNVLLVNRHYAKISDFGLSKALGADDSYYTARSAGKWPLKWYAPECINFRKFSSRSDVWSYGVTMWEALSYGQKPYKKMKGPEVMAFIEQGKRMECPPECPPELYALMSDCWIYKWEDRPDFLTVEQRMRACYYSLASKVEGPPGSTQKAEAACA
Kind of assay: ELISA tyrosine kinase assay, zapfl (ZAP70). From the text:
The baculoviral expression vector used was pVL1393. (Pharmingen, Los Angeles, Ca.) The nucleotide sequence encoding amino acids M(H)6 LVPR9S was placed 5' to the region encoding the entirety of ZAP70 (amino acids 1-619). The nucleotide sequence encoding the ZAP70 coding region was generated through PCR using cDNA libraries isolated from Jurkat immortalized T-cells. The histidine residues enabled affinity purification of the protein (vide infra). The LVPR9S bridge constitutes a recognition sequence for proteolytic cleavage by thrombin, enabling removal of the affinity tag from the enzyme. SF-9 insect cells were infected at a multiplicity of infection of 0.5 and harvested 48 hours post infection.
SF-9 cells were lysed in a buffer consisting of 20 mM Tris, pH 8.0, 137 mM NaCl, 10% glycerol, 1% Triton X-100, 1 mM PMSF, 1 µg/ml leupeptin, 10 µg/ml aprotinin and I mM sodium orthovanadate. The soluble lysate was applied to a chelating sepharose HiTrap column (Pharmacia) equilibrated in 50 mM HEPES, pH 7.5, 0.3 M NaCl. Fusion protein was eluted with 250 mM imidazole. The enzyme was stored in buffer containing 50 mM HEPES, pH 7.5, 50 mM NaCl and 5 mM DTT.
The disclosed protocol can be adapted for determining activity with respect to a specific RTK. […]
• 1. […] Shake on plate reader. • Read OD immediately at 450nm

Sequence of Lck (P06239 whole entry, species assumed, the tested form may be a part): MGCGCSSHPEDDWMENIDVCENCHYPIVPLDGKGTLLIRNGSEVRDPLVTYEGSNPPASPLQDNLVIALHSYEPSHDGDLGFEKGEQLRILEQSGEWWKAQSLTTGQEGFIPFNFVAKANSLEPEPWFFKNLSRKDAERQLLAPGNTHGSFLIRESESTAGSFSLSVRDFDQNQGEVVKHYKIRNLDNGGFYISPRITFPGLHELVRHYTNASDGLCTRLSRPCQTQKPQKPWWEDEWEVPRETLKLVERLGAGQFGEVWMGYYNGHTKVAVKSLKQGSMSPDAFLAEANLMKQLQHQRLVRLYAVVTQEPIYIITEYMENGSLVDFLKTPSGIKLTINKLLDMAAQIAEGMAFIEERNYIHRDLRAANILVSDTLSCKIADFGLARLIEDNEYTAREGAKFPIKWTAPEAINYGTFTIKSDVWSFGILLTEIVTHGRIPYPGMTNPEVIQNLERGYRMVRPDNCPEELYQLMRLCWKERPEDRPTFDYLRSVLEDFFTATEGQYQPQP
T1 sequence (P35968 789-1354): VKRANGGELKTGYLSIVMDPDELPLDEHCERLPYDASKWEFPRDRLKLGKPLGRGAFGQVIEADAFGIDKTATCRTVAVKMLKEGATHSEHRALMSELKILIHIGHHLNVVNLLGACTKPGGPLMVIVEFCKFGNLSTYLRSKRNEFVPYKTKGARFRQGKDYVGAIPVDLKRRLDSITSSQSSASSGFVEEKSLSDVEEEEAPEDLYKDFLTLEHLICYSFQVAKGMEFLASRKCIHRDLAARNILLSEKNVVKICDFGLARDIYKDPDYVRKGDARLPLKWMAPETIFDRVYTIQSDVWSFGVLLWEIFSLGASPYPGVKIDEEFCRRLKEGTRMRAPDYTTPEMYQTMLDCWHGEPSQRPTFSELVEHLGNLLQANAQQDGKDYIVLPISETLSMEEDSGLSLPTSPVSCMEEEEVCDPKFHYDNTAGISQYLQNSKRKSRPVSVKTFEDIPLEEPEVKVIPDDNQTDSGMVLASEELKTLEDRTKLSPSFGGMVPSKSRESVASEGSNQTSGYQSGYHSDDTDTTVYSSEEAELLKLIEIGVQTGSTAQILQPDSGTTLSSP

For the compound `c1ccc2c(c1)SCc1c(-c3ccncc3)n[nH]c1-2` [Compound III], the IC50 (commonly the concentration needed to halve the response being measured) on KDR tyrosine kinase was 13.4 µM; on Lck it was greater than 30 µM; against human Tie-2, greater than 30 µM; against zapfl it was 30.3 µM.
